Publication doi:10.1101/2021.10.07.463234v2 (biorxiv, 2021)
Counter-ions that a name gives are not always drawn.

These molecules were tested against SARS-CoV-2 Mac1 (Severe acute respiratory syndrome coronavirus 2, UniProt P0DTD1) (assay: biochemical). Details: 100 µM; inhibitor.

| SMILES | %inhibition [%] |
| --- | --- |
| CCn1cc(C(=O)O)c(=O)c2cc(F)c(N3CCNCC3)nc21 [Enoxacin Sesquihydrate] | 0 |
| CO/N=C(\C(=O)N[C@@H]1C(=O)N2C(C(=O)O)=C(CSC(=O)c3ccco3)CS[C@H]12)c1csc(N)n1 [Ceftiofur HCl] | 20.8 |
| C=C1[C@H](CO)[C@@H](O)C[C@@H]1n1cnc2c(=O)[nH]c(N)nc21 [Entecavir] | 0 |
| COc1ccccc1N1CCN(CC(O)COc2cccc3ccccc23)CC1 (stereo not drawn) [Naftopidil DiHCl] | 0 |
| N=C(N)NC(=O)c1nc(Cl)c(N)nc1N [Amiloride HCl] | 0 |
| N[C@@H](Cc1cc(I)c(Oc2cc(I)c(O)c(I)c2)c(I)c1)C(=O)O [Levothyroxine sodium] | 4.124 |
| CN(C)C/C=C/C(=O)Nc1cc2c(Nc3ccc(F)c(Cl)c3)ncnc2cc1O[C@H]1CCOC1 [Afatinib (BIBW2992)] | 0.3349 |
| C#Cc1cccc(Nc2ncnc3cc(OCCOC)c(OCCOC)cc23)c1 [Erlotinib HCl (OSI-744)] | 12.32 |
| O=C(O)c1ccccc1O [Sodium salicylate] | 0 |

Same assay, conditions: read-out: %inhibition

| SMILES | inhibition at 100 µM [%] |
| --- | --- |
| C[C@H](CCC(=O)O)[C@H]1CC[C@H]2[C@@H]3CC[C@@H]4C[C@H](O)CC[C@]4(C)[C@H]3C[C@H](O)[C@]12C [Deoxycholic acid] | 0 |
| CNC(=O)c1ccc(Nc2ncc(C(F)(F)F)c(NCc3nccnc3N(C)S(C)(=O)=O)n2)cc1 [Defactinib (VS-6063, PF-04554878)] | 0 |
| CC(C)(CO)C(O)C(=O)NCCCO (racemic) [DL-Panthenol] | 0 |
| NC(N)=Nc1nc(CSCC/C(N)=N/S(N)(=O)=O)cs1 [Famotidine] | 1.86 |
| CC(=O)Nc1ccc(CC(=O)O)cc1 [Actarit] | 2.1 |
| CN1CC[C@H](c2c(O)cc(O)c3c(=O)cc(-c4ccccc4Cl)oc23)[C@H](O)C1 [Flavopiridol (Alvocidib)] | 50.4 |
| O=S(=O)(O)CCSSCCS(=O)(=O)O [Dimesna] | 22.1 |
| Cc1cccc(Cc2c[nH]cn2)c1C [Detomidine HCl] | 0 |
| CC(=O)Nc1ccccc1 [Acetanilide] | 30.4 |
| CCCN(CCC)CCc1cccc2c1CC(=O)N2 [Ropinirole HCl] | 0 |
| NCCC(O)(P(=O)(O)O)P(=O)(O)O [Pamidronate Disodium] | 0.654 |
| O=C(O)C[C@H](O)C[C@H](O)/C=C/c1c(C2CC2)nc2ccccc2c1-c1ccc(F)cc1 [Pitavastatin Calcium] | 13.3 |
| CCc1ccc(C(=O)C(C)CN2CCCCC2)cc1 (stereo not drawn) [Eperisone hydrochloride] | 10.4 |
| CC1=C(C(=O)O)N2C(=O)[C@@H](NC(=O)[C@H](N)c3ccccc3)[C@H]2SC1 [Cephalexin] | 0 |
| O=c1oc2c(O)c(O)cc3c(=O)oc4c(O)c(O)cc1c4c23 [Ellagic acid] | 33.1 |
| CCN1CCC[C@H]1CNC(=O)c1cc(S(N)(=O)=O)ccc1OC [Levosulpiride] | 0 |
| Cc1onc(-c2c(Cl)cccc2Cl)c1C(=O)N[C@@H]1C(=O)N2[C@@H]1SC(C)(C)[C@@H]2C(=O)O [Dicloxacillin Sodium] | 10.8 |
| Cc1ncc(COP(=O)(O)O)c(C=O)c1O [Pyridoxal phosphate] | 0 |
| CCCCCCCN(CC)CCCC(O)c1ccc(NS(C)(=O)=O)cc1 (stereo not drawn) [Ibutilide Fumarate] | 0 |
| C1CNCCNCCNCCN1 [Cyclen] | 0 |
| O=S(=O)(c1cccc2cnccc12)N1CCCNCC1 [Fasudil (HA-1077) HCl] | 0 |
| NS(=O)(=O)c1cc(C2(O)NC(=O)c3ccccc32)ccc1Cl (stereo not drawn) [Chlorthalidone] | 1.46 |
| CN1CCN(c2cc3c(cc2F)c(=O)c(C(=O)O)cn3-c2ccc(F)cc2)CC1 [Difloxacin HCl] | 2.61 |

| SMILES | inhibition at 100 µM [%] |
| --- | --- |
| NCCS [Cysteamine HCl] | 35.3 |
| CCOc1ccc2nc3cc(N)ccc3c(N)c2c1 [Ethacridine lactate monohydrate] | 25.8 |
| CN(C)CCC=C1c2ccccc2CCc2ccccc21 [Amitriptyline HCl] | 0 |
| COc1cc2c(cc1OC)[C@H]1CC(=O)[C@H](CC(C)C)CN1CC2 [Tetrabenazine (Xenazine)] | 18.7 |
| N#C/C(=C1/SC[C@@H](c2ccc(Cl)cc2Cl)S1)n1ccnc1 [Luliconazole] | 24.1 |
| O=C(O)COCCN1CCN(C(c2ccccc2)c2ccc(Cl)cc2)CC1 (stereo not drawn) [Cetirizine DiHCl] | 1.2 |
| CCNC1(C(N)=O)CCN(c2ncnc3c2nc(-c2ccccc2Cl)n3-c2ccc(Cl)cc2)CC1 [Otenabant (CP-945598) HCl] | 2.29 |
| Cc1c(C(=O)NN2CCCCC2)nn(-c2ccc(Cl)cc2Cl)c1-c1ccc(Cl)cc1 [Rimonabant] | 3.4 |
| N#Cc1ccc2[nH]cc(CCCCN3CCN(c4ccc5oc(C(N)=O)cc5c4)CC3)c2c1 [Vilazodone HCl] | 9.5 |
| C=C1CCN([C@H](C)[C@](O)(Cn2cncn2)c2ccc(F)cc2F)CC1 [Efinaconazole] | 2.14 |
| C=C[C@H]1CN2CC[C@H]1C[C@@H]2[C@@H](O)c1ccnc2ccc(OC)cc12 [Quinidine sulfate] | 0 |
| COc1ccccc1OCC(O)COC(N)=O (stereo not drawn) [Methocarbamol] | 36.3 |
| O=C(NCC(O)CO)c1c(I)c(C(=O)NCC(O)CO)c(I)c(N(CCO)C(=O)CO)c1I (stereo not drawn) [Ioversol] | 25.5 |
| C=C[C@]1(C)C[C@@H](OC(=O)CS[C@@H]2C[C@H]3CC[C@@H](C2)N3C)[C@]2(C)[C@H](C)CC[C@]3(CCC(=O)[C@H]32)[C@@H](C)[C@@H]1O [Retapamulin] | 0 |
| CCCc1nc2c(C)cc(-c3nc4ccccc4n3C)cc2n1Cc1ccc(-c2ccccc2C(=O)O)cc1 [Telmisartan] | 27.9 |
| CN1C(=O)CCS(=O)(=O)C1c1ccc(Cl)cc1 (stereo not drawn) [Chlormezanone] | 20.4 |
| CC[C@H]1CN2CC[C@H]1C[C@@H]2[C@@H](O)c1ccnc2ccc(OC)cc12 [Hydroquinidine] | 4.48 |
| O=C(O)CC(O)(CC(=O)O)C(=O)O [Citric acid trilithium salt tetrahydrate] | 0 |
| COc1ccc(C(=O)c2ccccc2O)c(O)c1 [2,2′-Dihydroxy-4-methoxybenzophenone] | 8.7 |
| CCC1(c2ccc(N)cc2)CCC(=O)NC1=O (stereo not drawn) [Aminoglutethimide] | 17.3 |
| N[C@@H](CCC(=O)N[C@@H](CS)C(=O)NCC(=O)O)C(=O)O [Glutathione] | 0 |
| C=C1/C(=C\C=C2/CCC[C@]3(C)[C@@H]([C@H](C)CCCC(C)C)CC[C@@H]23)C[C@@H](O)C[C@@H]1O [Alfacalcidol] | 0 |
| C/C(O)=C(\C#N)C(=O)Nc1ccc(C(F)(F)F)cc1 [Teriflunomide] | 12.5 |

| SMILES | inhibition at 100 µM [%] |
| --- | --- |
| CC(C)[C@H]1CC[C@H](C(=O)N[C@H](Cc2ccccc2)C(=O)O)CC1 [Nateglinide] | 0 |
| OC[C@H]1OC(O)[C@H](O)[C@@H](O)[C@@H]1O (stereo partly drawn) [Dextrose] | 0 |
| C[C@@H](O)[C@H]1C(=O)N2C(C(=O)[O-])=C(SC3Cn4cnc[n+]4C3)[C@H](C)[C@H]12 (stereo partly drawn) [Biapenem] | 5.82 |
| NCC(O)c1ccc(O)cc1 (racemic) [(+,-)-Octopamine HCl] | 0 |
| O=S(=O)(O)CCCS(=O)(=O)O [Eprodisate disodium] | 0 |
| CC(C)(C)NC(=O)[C@H]1CC[C@H]2[C@@H]3CC[C@H]4NC(=O)C=C[C@]4(C)[C@H]3CC[C@]12C [Finasteride] | 0 |
| CC(=O)O[C@H]1C[C@@]2(C)[C@@H](C[C@@H](O)[C@H]3[C@@]4(C)CC[C@@H](O)[C@@H](C)[C@@H]4CC[C@@]32C)/C1=C(\CCC=C(C)C)C(=O)O [Fusidate Sodium] | 3.17 |
| O[C@H](CNC[C@@H](O)[C@H]1CCc2cc(F)ccc2O1)[C@@H]1CCc2cc(F)ccc2O1 [Nebivolol HCl] | 0 |
| CCCCC[C@H](O)/C=C/[C@@H]1[C@@H](C/C=C\CCCC(=O)O)[C@@H](O)C[C@H]1O [Dinoprost tromethamine] | 32.6 |
| CN1C(C(=O)Nc2ccccn2)=C(O)c2sc(Cl)cc2S1(=O)=O [Lornoxicam] | 18.3 |
| O=P(O)(O)C(O)(Cc1cccnc1)P(=O)(O)O [Risedronate Sodium] | 8.32 |
| NC(=O)[C@@H]1CCCN1C(=O)[C@H](Cc1c[nH]cn1)NC(=O)[C@@H]1CCC(=O)N1 [Protirelin] | 0 |
| CN1C(CCl)Nc2cc(Cl)c(S(N)(=O)=O)cc2S1(=O)=O (stereo not drawn) [Methyclothiazide] | 0 |
| CC(C)(C)c1cc(NC(=O)Nc2ccc(-c3cn4c(n3)sc3cc(OCCN5CCOCC5)ccc34)cc2)no1 [Quizartinib (AC220)] | 0 |
| CC(C)Oc1ccc2c(=O)c(-c3ccccc3)coc2c1 [Ipriflavone (Osteofix)] | 0 |
| Cc1c(Cl)cccc1Nc1ccccc1C(=O)O [Tolfenamic Acid] | 16.4 |
| O=C1[C@H](CC[C@H](O)c2ccc(F)cc2)[C@@H](c2ccc(O)cc2)N1c1ccc(F)cc1 [Ezetimibe] | 5.79 |
| CC1(C)C[C@@H]1C(=O)N/C(=C\CCCCSC[C@H](N)C(=O)O)C(=O)O [Cilastatin] | 0 |
| C[C@@H]1O[C@@H]1P(=O)(O)O [Fosfomycin Disodium] | 0 |
| CCOc1ccccc1OCCN[C@H](C)Cc1ccc(OC)c(S(N)(=O)=O)c1 [Tamsulosin hydrochloride] | 0 |
| CO/N=C(\C(=O)N[C@@H]1C(=O)N2C(C(=O)OCOC(=O)C(C)(C)C)=C(/C=C\c3scnc3C)CS[C@H]12)c1csc(N)n1 [Cefditoren Pivoxil] | 0 |
| CCOc1ccc(NC(C)=O)cc1 [Phenacetin] | 11.4 |
| C[C@@H]1O[C@@H](OC[C@H]2O[C@@H](Oc3c(-c4ccc(O)c(O)c4)oc4cc(O)cc(O)c4c3=O)[C@H](O)[C@@H](O)[C@@H]2O)[C@H](O)[C@H](O)[C@H]1O [Rutin] | 3.42 |
